# According to PMC11129975, “A first-in-human phase I study of TAS-117, an allosteric AKT inhibitor, in patients with advanced solid tumors” (Cancer Chemotherapy and Pharmacology, 2024):
# Experiment: Phase I safety: adverse events, adverse drug reactions, DLTs in patients with advanced solid tumors
# Format: in vivo, human
# From the text: This was a phase I, open-label, non-randomized, dose-escalating first-in-human study to evaluate the safety, pharmacokinetics, antitumor activity, pharmacodynamics, and pharmacogenomics of TAS-117 in patients with advanced solid tumors. The study had three phases: a dose escalation phase (DEP), a regimen modification phase (RMP), and a safety assessment phase (SAP). The treatment cycle on each regimen lasted 21 days. The DEP used an accelerated titration and 3 + 3 design. TAS-117 was administered orally once daily (QD) on an empty stomach (1 h before or 2 h after a meal). Dosing was determined based on a 4-week repeated oral-dose toxicology study in monkeys (data on file, Taiho Pharmaceutical Co., Ltd.); the highest non-severely toxic dose was 1.2 mg/kg/day, which was converted to 3.84 mg/body/day, or 2.4 mg/m^2. Therefore, the starting dose was determined to be ≤ 2.4 mg/m^2. At dose level 1, TAS-117 was administered at 2 mg QD (Day − 2), and the dose was increased to 4 mg QD after 2 days (Day 1). The RMP was conducted according to a 3 + 3 design. During this phase, the dose regimen was changed from QD administration to intermittent dosing of daily TAS-117 with 4 days on/3 days off. TAS-117 was administered on an empty stomach. Dose-limiting toxicities (DLTs) were evaluated in Cycle 1 of the DEP and RMP. […] The RD and regimen for the SAP were determined based on the safety, pharmacokinetics, pharmacodynamics, and antitumor activity profile determined in the DEP and RMP. During the SAP, the safety and preliminary efficacy profiles of TAS-117 were assessed at the RD and recommended regimen. Three cohorts were included in this assessment. Cohort 1 included patients with endometrial cancer with a PIK3CA mutation; cohort 2 included patients with endometrial cancer with an AKT1 mutation, AKT1 amplification, or AKT2 amplification; and cohort 3 included patients with ovarian clear cell carcinoma.
# The primary endpoints were the proportion of patients who experienced DLTs in Cycle 1 of the DEP and RMP and the incidence of adverse events (AEs) and adverse drug reactions (ADRs) in the SAP. AEs and ADRs were coded using the Medical Dictionary for Regulatory Activities (MedDRA; version 24.1) and graded according to the National Cancer Institute Common Terminology Criteria for Adverse Events (CTCAE; version 4.03). Secondary endpoints were pharmacokinetic findings, changes in the ratio of phosphorylated PRAS40 (pPRAS40)/total PRAS40 from baseline, efficacy, and pharmacogenomics findings.
compound,measurement,setting,value
C[C@]1(O)C[C@@](N)(c2ccc(-c3nc4n(c3-c3ccccc3)COc3ccncc3-4)cc2)C1 [TAS-117],Adverse drug reactions: AST increased,"SAP n = 43, All grade",6 (14.0) n (%)
same,Adverse drug reactions: Any events,"SAP n = 43, All grade",43 (100.0) n (%)
same,Adverse drug reactions: Blood AP increased,"SAP n = 43, All grade",5 (11.6) n (%)
same,Adverse drug reactions: Decreased appetite,"SAP n = 43, All grade",3 (7.0) n (%)
same,Adverse drug reactions: Diarrhea,"SAP n = 43, All grade",5 (11.6) n (%)
same,Adverse drug reactions: Dry skin,"SAP n = 43, All grade",7 (16.3) n (%)
same,Adverse drug reactions: GGT increased,"SAP n = 43, All grade",5 (11.6) n (%)
same,Adverse drug reactions: GI disorders,"SAP n = 43, All grade",29 (67.4) n (%)
same,Adverse drug reactions: General disorders and administration site conditions,"SAP n = 43, All grade",20 (46.5) n (%)
same,Adverse drug reactions: Hyperglycemia,"SAP n = 43, All grade",23 (53.5) n (%)
same,Adverse drug reactions: Investigations,"SAP n = 43, All grade",28 (65.1) n (%)
same,Adverse drug reactions: Metabolism and nutrition disorders,"SAP n = 43, All grade",26 (60.5) n (%)
same,Adverse drug reactions: Nausea,"SAP n = 43, All grade",12 (27.9) n (%)
same,Adverse drug reactions: Neutrophil count decreased,"SAP n = 43, All grade",15 (34.9) n (%)
same,Adverse drug reactions: Pruritus,"SAP n = 43, All grade",8 (18.6) n (%)
same,Adverse drug reactions: Pyrexia,"SAP n = 43, All grade",12 (27.9) n (%)
same,Adverse drug reactions: Rash maculo-papular,"SAP n = 43, All grade",40 (93.0) n (%)
same,Adverse drug reactions: Skin and SC tissue disorders,"SAP n = 43, All grade",41 (95.3) n (%)
same,Adverse drug reactions: Stomatitis,"SAP n = 43, All grade",26 (60.5) n (%)
same,Adverse drug reactions: Vomiting,"SAP n = 43, All grade",4 (9.3) n (%)
same,Adverse drug reactions: WBC count decreased,"SAP n = 43, All grade",19 (44.2) n (%)
same,Adverse events: ALT increased,"SAP n = 43, All grade",8 (18.6) n (%)
same,Adverse events: AST increased,"SAP n = 43, All grade",8 (18.6) n (%)
same,Adverse events: Any events,"SAP n = 43, All grade",43 (100.0) n (%)
same,Adverse events: Blood AP increased,"SAP n = 43, All grade",5 (11.6) n (%)
same,Adverse events: Decreased appetite,"SAP n = 43, All grade",7 (16.3) n (%)
same,Adverse events: Diarrhea,"SAP n = 43, All grade",9 (20.9) n (%)
same,Adverse events: Dry skin,"SAP n = 43, All grade",10 (23.3) n (%)
same,Adverse events: GGT increased,"SAP n = 43, All grade",7 (16.3) n (%)
same,Adverse events: GI disorders,"SAP n = 43, All grade",35 (81.4) n (%)
same,Adverse events: General disorders and administration site conditions,"SAP n = 43, All grade",25 (58.1) n (%)
same,Adverse events: Hyperglycemia,"SAP n = 43, All grade",23 (53.5) n (%)
same,Adverse events: Investigations,"SAP n = 43, All grade",29 (67.4) n (%)
same,Adverse events: Metabolism and nutrition disorders,"SAP n = 43, All grade",28 (65.1) n (%)
same,Adverse events: Nausea,"SAP n = 43, All grade",15 (34.9) n (%)
same,Adverse events: Neutrophil count decreased,"SAP n = 43, All grade",15 (34.9) n (%)
same,Adverse events: Pruritus,"SAP n = 43, All grade",8 (18.6) n (%)
same,Adverse events: Pyrexia,"SAP n = 43, All grade",17 (39.5) n (%)
same,Adverse events: Rash maculo-papular,"SAP n = 43, All grade",40 (93.0) n (%)
same,Adverse events: Skin and SC tissue disorders,"SAP n = 43, All grade",41 (95.3) n (%)
same,Adverse events: Stomatitis,"SAP n = 43, All grade",27 (62.8) n (%)
same,Adverse events: Vomiting,"SAP n = 43, All grade",8 (18.6) n (%)
same,Adverse events: WBC count decreased,"SAP n = 43, All grade",19 (44.2) n (%)
same,Adverse drug reactions: ALT increased,"SAP n = 43, ≥ Grade 3",2 (4.7) n (%)
same,Adverse drug reactions: AST increased,"SAP n = 43, ≥ Grade 3",0 (0.0) n (%)
same,Adverse drug reactions: Any events,"SAP n = 43, ≥ Grade 3",30 (69.8) n (%)
same,Adverse drug reactions: Blood AP increased,"SAP n = 43, ≥ Grade 3",0 (0.0) n (%)
same,Adverse drug reactions: Decreased appetite,"SAP n = 43, ≥ Grade 3",0 (0.0) n (%)
same,Adverse drug reactions: Diarrhea,"SAP n = 43, ≥ Grade 3",0 (0.0) n (%)
same,Adverse drug reactions: Dry skin,"SAP n = 43, ≥ Grade 3",0 (0.0) n (%)
same,Adverse drug reactions: GGT increased,"SAP n = 43, ≥ Grade 3",4 (9.3) n (%)
same,Adverse drug reactions: GI disorders,"SAP n = 43, ≥ Grade 3",1 (2.3) n (%)
same,Adverse drug reactions: General disorders and administration site conditions,"SAP n = 43, ≥ Grade 3",0 (0.0) n (%)
same,Adverse drug reactions: Hyperglycemia,"SAP n = 43, ≥ Grade 3",7 (16.3) n (%)
same,Adverse drug reactions: Investigations,"SAP n = 43, ≥ Grade 3",16 (37.2) n (%)
same,Adverse drug reactions: Metabolism and nutrition disorders,"SAP n = 43, ≥ Grade 3",7 (16.3) n (%)
same,Adverse drug reactions: Nausea,"SAP n = 43, ≥ Grade 3",0 (0.0) n (%)
same,Adverse drug reactions: Neutrophil count decreased,"SAP n = 43, ≥ Grade 3",9 (20.9) n (%)
same,Adverse drug reactions: Pruritus,"SAP n = 43, ≥ Grade 3",0 (0.0) n (%)
same,Adverse drug reactions: Pyrexia,"SAP n = 43, ≥ Grade 3",0 (0.0) n (%)
same,Adverse drug reactions: Rash maculo-papular,"SAP n = 43, ≥ Grade 3",20 (46.5) n (%)
same,Adverse drug reactions: Skin and SC tissue disorders,"SAP n = 43, ≥ Grade 3",21 (48.8) n (%)
same,Adverse drug reactions: Stomatitis,"SAP n = 43, ≥ Grade 3",1 (2.3) n (%)
same,Adverse drug reactions: Vomiting,"SAP n = 43, ≥ Grade 3",0 (0.0) n (%)
same,Adverse drug reactions: WBC count decreased,"SAP n = 43, ≥ Grade 3",5 (11.6) n (%)
same,Adverse events: ALT increased,"SAP n = 43, ≥ Grade 3",2 (4.7) n (%)
same,Adverse events: AST increased,"SAP n = 43, ≥ Grade 3",0 (0.0) n (%)
same,Adverse events: Any events,"SAP n = 43, ≥ Grade 3",34 (79.1) n (%)
same,Adverse events: Blood AP increased,"SAP n = 43, ≥ Grade 3",0 (0.0) n (%)
same,Adverse events: Decreased appetite,"SAP n = 43, ≥ Grade 3",1 (2.3) n (%)
same,Adverse events: Diarrhea,"SAP n = 43, ≥ Grade 3",0 (0.0) n (%)
same,Adverse events: Dry skin,"SAP n = 43, ≥ Grade 3",0 (0.0) n (%)
same,Adverse events: GGT increased,"SAP n = 43, ≥ Grade 3",6 (14.0) n (%)
same,Adverse events: GI disorders,"SAP n = 43, ≥ Grade 3",2 (4.7) n (%)
same,Adverse events: General disorders and administration site conditions,"SAP n = 43, ≥ Grade 3",0 (0.0) n (%)
same,Adverse events: Hyperglycemia,"SAP n = 43, ≥ Grade 3",7 (16.3) n (%)
same,Adverse events: Investigations,"SAP n = 43, ≥ Grade 3",18 (41.9) n (%)
same,Adverse events: Metabolism and nutrition disorders,"SAP n = 43, ≥ Grade 3",9 (20.9) n (%)
same,Adverse events: Nausea,"SAP n = 43, ≥ Grade 3",0 (0.0) n (%)
same,Adverse events: Neutrophil count decreased,"SAP n = 43, ≥ Grade 3",9 (20.9) n (%)
same,Adverse events: Pruritus,"SAP n = 43, ≥ Grade 3",0 (0.0) n (%)
same,Adverse events: Pyrexia,"SAP n = 43, ≥ Grade 3",0 (0.0) n (%)
same,Adverse events: Rash maculo-papular,"SAP n = 43, ≥ Grade 3",20 (46.5) n (%)
same,Adverse events: Skin and SC tissue disorders,"SAP n = 43, ≥ Grade 3",21 (48.8) n (%)
same,Adverse events: Stomatitis,"SAP n = 43, ≥ Grade 3",1 (2.3) n (%)
same,Adverse events: Vomiting,"SAP n = 43, ≥ Grade 3",0 (0.0) n (%)
same,Adverse events: WBC count decreased,"SAP n = 43, ≥ Grade 3",5 (11.6) n (%)
same,"Death (grade 5 respiratory failure, judged unrelated to TAS-117)","SAP, cohort 1",One patient
same,Adverse drug reactions: ALT increased,"Total N = 65, All grade",7 (10.8) n (%)
same,Adverse drug reactions: AST increased,"Total N = 65, All grade",8 (12.3) n (%)
same,Adverse drug reactions: Any events,"Total N = 65, All grade",64 (98.5) n (%)
